Measurements published in US20040038904A1, “Method of treating multiple sclerosis” (priority 2002, published 2004).

System: progressive multiple sclerosis
Assay: Monitoring of progress of treatment (clinical condition) in patient with progressive multiple sclerosis
Format: in vivo, human
Conditions: epirubicin 75-100 mg iv with dexrazoxane, 12-week cycle, first and second treatment cycles
Source text: Anthracyclines of the present invention can be administered in cycles over 7-week to 15-week intervals. Generally, treatment with anthracyclines is started with a 12-week cycle and the patient is monitored for progress of the treatment during the course of treatment. If the condition of the patient deteriorates between week 8 and 12 of the cycle, the treatment cycle should be shortened to, for example, 9 weeks or shorter.
A patient is diagnosed with progressive multiple sclerosis. Anthracycline therapy with epirubicin 75 mg by intravenous injection is initiated on a 12-week cycle. Prior to the administration of the anthracycline, the patient is pretreated with dexrazoxane at 750 mg by intravenous injection. The patient is monitored for progress of treatment and hematologic and non-hematologic toxicity throughout the course of treatment.

## COc1cccc2c1C(=O)c1c(O)c3c(c(O)c1C2=O)C[C@@](O)(C(=O)CO)C[C@@H]3O[C@H]1C[C@H](N)[C@@H](O)[C@H](C)O1 [epirubicin]
  patient's clinical condition during treatment cycle: deteriorates between weeks 9 and 12
